Experimental data as given in US20170313755A1 (priority 2016, published 2017).
“Also recorded” adds a separate entry of the source.

B1: IGF1 (Y^B16L^B17) analog (ligand)
chain 1: GIVDECCFRSCDLRRLEMYCA
chain 2: GPETLCGAELVDALYLVCGDRGFYFNKPT
notes: Two chain analog; also called IGF analog

Tested on: insulin receptor A (IRA) and insulin receptor B (IRB) isoforms
Assay: Insulin receptor phosphorylation assay in receptor transfected HEK293 cells
Format: cell-based, human
Conditions: agonism
Procedure: Color development was stopped 5 min later by adding 0.05 ml 1 N HCl. Absorbance at 450 nm was measured on Titertek Multiscan MCC340 (ThermoFisher, Pittsburgh, Pa.). Absorbance vs. peptide concentration dose response curves were plotted and EC50 values were determined by using Origin software (OriginLab, Northampton, Mass.).
Optical density at 450 nm was graphed as a function of peptide concentration using Origin Pro 9.0 graphing software.

Molecule	agonist (maximal) activity at the insulin receptor isoforms	potency at the insulin receptor isoforms
#6(Q2)-Cys-Insulin: B29 modified insulin disulfide-conjugated to 6(Q2)Cys SQEEEWAQIQSEVWGRGSPSYC (SEQ ID NO: 180)	without a significant decrease in maximal activity; also recorded: high of maximal activity	shift in potency; also recorded: decrease in potency
modified insulin: native insulin modified with an NHS ester to carry one additional thiol functional group at the B29 lysine	fully activating the insulin receptor isoforms	slightly reduced potency
#6(I2)-Cys-Insulin: B29 modified insulin disulfide-conjugated to 6(I2)Cys SIEEEWAQIQSEVWGRGSPSYC (SEQ ID NO: 175)	very similar, low maximal activities	
#6(V2)-Cys-Insulin: B29 modified insulin disulfide-conjugated to 6(V2)Cys SVEEEWAQIQSEVWGRGSPSYC (SEQ ID NO: 176)	slight increase in maximal activity	
#6(A2)-Cys-Insulin: B29 modified insulin disulfide-conjugated to 6(A2)Cys SAEEEWAQIQSEVWGRGSPSYC (SEQ ID NO: 172)	restored almost all of the potency and activity	restored almost all of the potency and activity
#6(A1)-Cys-Insulin: B29 modified insulin disulfide-conjugated to 6(A1)Cys ALEEEWAQIQSEVWGRGPSYC (SEQ ID NO: 171)	almost no effect upon bioactivity	
#6(dL2)-Cys-Insulin: B29 modified insulin disulfide-conjugated to 6(dL2)Cys SdLEEEWAQIQSEVWGRGSPSYC (SEQ ID NO: 174)	low activity	decreased potency
#Insulin-Cys-4: B29 modified insulin disulfide-conjugated to Cys4 CGSLDESFYDWFERQLG (SEQ ID NO: 166)	only a small change in maximal activity	a small decrease in potency
#6(des1-5)-Cys-Insulin: B29 modified insulin disulfide-conjugated to 6(des1-5)Cys WAQIQSEVWGRGSPSYC (SEQ ID NO: 170)	full activity	full potency
#6(A3)-Cys-Insulin: B29 modified insulin disulfide-conjugated to 6(A3)Cys SLAEEWAQIQSEVWGRGSPSYC (SEQ ID NO: 173)	little effect on maximal activity	shift the potency

Same assay, conditions: agonism, both receptor isoforms

Molecule	maximal activity relative to native insulin
#6(W2)-Cys-Insulin: B29 modified insulin disulfide-conjugated to 6(W2)Cys SWEEEWAQIQSEVWGRGSPSYC (SEQ ID NO: 178)	approximately 60%
#6(Y2)-Cys-Insulin: B29 modified insulin disulfide-conjugated to 6(Y2)Cys SYEEEWAQIQSEVWGRGSPSYC (SEQ ID NO: 179)	approximately 70%
#6(F2)-Cys-Insulin: B29 modified insulin disulfide-conjugated to 6(F2)Cys SFEEEWAQIQSEVWGRGSPSYC (SEQ ID NO: 177)	~50%

Same assay, conditions: conjugate against native insulin

Molecule	antagonism at the insulin receptor isoforms
#4-Cys-Insulin: B29 modified insulin disulfide-conjugated to 4Cys GSLDESFYDWFERQLGC (SEQ ID NO: 167)	some degree of antagonism

Tested on: mice
Assay: Comparative insulin tolerance tests on mice (acylated insulin analogs)
Format: in vivo
Conditions: 27 nmol/kg and 90 nmol/kg; even after 8 hours
Procedure: The polypeptides were tested at two different concentrations (27 nmol/kg and 90 nmol/kg). The acylated insulins included MIU-41, MIU-36 and MIU-37.
The compounds were tested at two different concentrations (27 nmol/kg and 90 nmol/kg).

Molecule	blood glucose lowering relative to native insulin
[B^1(H5,H10,Y16,L17,C16rE-K22)26A: A^1(N18,N21)] [MIU-37]	more basal and sustained lowered glucose levels
[B^1(H5,H10,Y16,L17)26A: A^1(H8,rEC16-K14,N18,N21)] [MIU-41]	more basal and sustained lowered glucose levels
[B^1(C16-K0,H5,H10,Y16,L17)26A: A1(N18,N21)] [MIU-36]	more basal and sustained lowered glucose levels

Tested on: STZ-mice
Assay: Blood glucose in STZ diabetic mice after insulin/antagonist peptide conjugates
Format: in vivo
Conditions: 10 nmol/kg, mice fasted 2 hours
Procedure: The peptides were tested in STZ-mice, due to their high fasting blood glucose levels.

Molecule	blood glucose response versus equivalent dose of native insulin
#6(A2)-Cys-Insulin: B29 modified insulin disulfide-conjugated to 6(A2)Cys SAEEEWAQIQSEVWGRGSPSYC (SEQ ID NO: 172)	behaved identically to an equivalent dose of native insulin

Tested on: insulin receptor A (IRA) and insulin receptor B (IRB) isoforms
Assay: not given
Conditions: non-covalent addition (in trans); previous work; cited from earlier work

Molecule	antagonism of native insulin by unconjugated peptide (words)
SLEEEWAQIQSEVWGRGSPSYC (synthetic insulin receptor antagonist peptide) [#6Cys]	incapable of antagonizing native insulin

Same assay, conditions: non-covalent addition (in trans); previous work; listed as #6-Cys; cited from earlier work

Molecule	antagonism of native insulin by unconjugated peptide (words)
SLEEEWAQIQSEVWGRGSPSYC (synthetic insulin receptor antagonist peptide) [#6Cys]	incapable of antagonism in vitro

Target: T1, human insulin receptor (human, UniProt P06213 28-1382)
T1 construct: whole, on cells; Stood in the assay as plasma membrane fragments on wheat germ agglutinin SPA beads, not as whole cells
Assay: scintillation proximity competition binding against 125I-insulin, membranes with human insulin receptor
Conditions: not given
Procedure: The affinity of each peptide for the insulin or IGF-1 receptor was measured in a competition binding assay utilizing scintillation proximity technology. […] Non-specifically bound (NSB) radioactivity was measured in the wells with a four-fold concentration excess of “cold” native ligand than the highest concentration in test samples. Total bound radioactivity was detected in the wells with no competitor. Percent specific binding was calculated as following: % Specific Binding=(Bound-NSB/Total bound-NSB)×100. IC50 values were determined by using Origin software (OriginLab, Northampton, Mass.).

Molecule	IC50 [nM]
B1	0.51
